These results are taken from US12391737B2, “Soluble NPY2 receptor agonists” (Boehringer Ingelheim International GmbH, priority 2020, dated 2025).

In general, EC50 refers to the concentration that produces a half-maximal response. Lower therefore signals greater potency. By Ki is commonly meant the equilibrium dissociation constant of an inhibitor or competing ligand from its target.

*1 amine or outer side, *2 acyl side, *3 side chain or, on linkers, in order; H or OH if unused. Where a SMILES comes first, the peptide text is derived from it. Side-chain parts run from the residue outwards. The star is where a group is joined. C18 diacid = O=C(O)CCCCCCCCCCCCCCCCC(=O)*; γGlu = O=C(O)[C@H](CCC(=O)[*:2])N[*:1]; Isovaleryl = CC(C)CC(=O)*; Ahx = NCCCCCC(=O)O

The nature of series [1]: Solubility determination. As to conditions: for Sol6: pH 6; for Sol7: pH 7. The method, boiled down:
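Sample: TFA-salt peptide at 10 mg/ml target in 0.1 M Na diphosphate, pH 6.4 or 7.0, shaken 2 h RT, filtered, diluted to 1 mg/ml.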

Series [2] deals with T1, human NPY5 receptor (hY5R) (Homo sapiens, UniProt Q15761).
T1 sequence (Q15761 1-445): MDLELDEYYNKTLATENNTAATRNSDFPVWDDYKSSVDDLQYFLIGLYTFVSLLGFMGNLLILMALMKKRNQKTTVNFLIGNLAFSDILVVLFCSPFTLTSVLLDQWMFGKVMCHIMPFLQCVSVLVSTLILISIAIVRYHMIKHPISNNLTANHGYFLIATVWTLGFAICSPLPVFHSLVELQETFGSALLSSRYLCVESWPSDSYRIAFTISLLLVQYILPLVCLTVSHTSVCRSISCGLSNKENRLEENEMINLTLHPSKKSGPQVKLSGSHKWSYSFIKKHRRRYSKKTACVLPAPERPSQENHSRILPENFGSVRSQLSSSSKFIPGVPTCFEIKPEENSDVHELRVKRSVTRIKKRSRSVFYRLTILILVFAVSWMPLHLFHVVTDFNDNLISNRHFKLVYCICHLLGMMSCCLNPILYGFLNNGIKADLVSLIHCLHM
Briefly: HTRF cAMP Gi assay, hY5R. In general terms: TR-FRET usually uses a lanthanide donor and a delayed reading to cut background.

In series [3] the target is T2, Human Neuropeptide Y2 Receptor (Homo sapiens, UniProt P49146).
T2 construct: purchased CHEMICON HTS066M
T2 sequence (P49146 1-381): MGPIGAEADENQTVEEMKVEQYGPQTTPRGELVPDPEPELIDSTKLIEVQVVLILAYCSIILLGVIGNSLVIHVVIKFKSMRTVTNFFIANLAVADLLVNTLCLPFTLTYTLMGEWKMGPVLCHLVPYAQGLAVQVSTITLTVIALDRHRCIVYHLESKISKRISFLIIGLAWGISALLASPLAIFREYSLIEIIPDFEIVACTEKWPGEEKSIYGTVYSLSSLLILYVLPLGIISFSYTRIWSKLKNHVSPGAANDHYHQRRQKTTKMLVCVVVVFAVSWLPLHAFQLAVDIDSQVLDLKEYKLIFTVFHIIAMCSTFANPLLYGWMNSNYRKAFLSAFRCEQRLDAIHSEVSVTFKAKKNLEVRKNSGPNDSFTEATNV
As to the kind of experiment: Radioligand binding competition assay (RLB). As to conditions: Table 3, 125I-PYY(1-36) competition; read-out: Ki. A digest of the protocol:
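Displacement of radioligand is measured after 2 h at room temperature with receptor membranes in Mg2+/Ca2+ HEPES buffer, pH 7.4. Filter-bound radioactivity is counted and IC50 obtained from curve fitting.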

For the molecule `CC[C@H](C)[C@H](NC(=O)[C@H](Cc1ccc(O)cc1)NC(=O)[C@H](Cc1ccc(O)cc1)NC(=O)[C@H](CCCNC(=N)N)NC(=O)[C@H](CCC(N)=O)NC(=O)[C@H](CC(C)C)NC(=O)[C@H](CCC(=O)O)NC(=O)[C@H](CCC(=O)O)NC(=O)[C@@H]1CCCN1C(=O)[C@H](CO)NC(=O)[C@H](C)NC(=O)[C@H](CC(=O)O)NC(=O)[C@H](CCC(=O)O)NC(=O)[C@H](CCC(=O)O)NC(=O)[C@@H]1CCCN1C(=O)[C@H](CCCCNC(=O)CCCCCNC(=O)CC[C@H](NC(=O)CCCCCCCCCCCCCCCCC(=O)O)C(=O)O)NC(=O)[C@H](CCC(=O)O)NC(=O)[C@@H]1CCCN1C(=O)[C@H](C)NC(=O)CC(C)C)C(=O)N[C@@H](CO)C(=O)N[C@@H](CC(C)C)C(=O)N[C@@H](CCCNC(=N)N)C(=O)N[C@@H](Cc1c[nH]cn1)C(=O)N[C@@H](Cc1ccc(O)cc1)C(=O)N[C@@H](Cc1ccc(O)cc1)C(=O)N[C@@H](CC(N)=O)C(=O)N[C@@H](Cc1c[nH]c2ccccc12)C(=O)N[C@@H](CC(C)C)C(=O)N[C@H](C(=O)N[C@@H](CCCNC(=N)N)C(=O)N[C@@H](CCC(N)=O)C(=O)N[C@@H](CCCNC(=N)N)C(=O)N[C@@H](Cc1ccc(O)cc1)C(N)=O)[C@@H](C)O` [Compound 76, N{alpha-4}-(3-methylbutanoyl)-N{epsilon-7}-(6-[(4S)-4-carboxy-4-(17-carboxyheptadecanamido)butanamido]hexanoyl)-[4A,7K,9E,18Q,22I,28Y,30W,31L]-hPYY(4-36)], in series [1], the “Sol6” value amounted to 10.0 mg/mL and the “Sol7” value is 10.0 mg/mL. This molecule also registered an EC50 in series [2] of over 5000 nM. Besides, the Ki in series [3] is 2.68 nM.

With `CC(C)CC(=O)N[C@@H](C)C(=O)N1CCC[C@H]1C(=O)N[C@@H](CCC(=O)O)C(=O)N[C@@H](CCCCNC(=O)CCCCCNC(=O)CC[C@H](NC(=O)CCCCCCCCCCCCCCCCC(=O)O)C(=O)O)C(=O)N1CCC[C@H]1C(=O)N[C@@H](CCC(=O)O)C(=O)N[C@@H](CCC(=O)O)C(=O)N[C@@H](CC(=O)O)C(=O)N[C@@H](C)C(=O)N[C@@H](CO)C(=O)N1CCC[C@H]1C(=O)N[C@@H](CCC(=O)O)C(=O)N[C@@H](CCC(=O)O)C(=O)N[C@@H](CC(C)C)C(=O)N[C@@H](CCC(N)=O)C(=O)N[C@@H](CCCNC(=N)N)C(=O)N[C@@H](Cc1ccc(O)cc1)C(=O)N[C@@H](Cc1ccc(O)cc1)C(=O)N[C@H](C(=O)N[C@@H](CO)C(=O)N[C@@H](CC(C)C)C(=O)N[C@@H](CCCNC(=N)N)C(=O)N[C@@H](Cc1c[nH]cn1)C(=O)N[C@@H](Cc1ccc(O)cc1)C(=O)N[C@@H](Cc1ccc(O)cc1)C(=O)N[C@@H](CC(N)=O)C(=O)N[C@@H](Cc1c[nH]c2ccccc12)C(=O)N[C@@H](CC(C)C)C(=O)N[C@H](C(=O)N[C@@H](CCCNC(=N)N)C(=O)N[C@@H](CCC(N)=O)C(=O)N[C@@H](CCCNC(=N)N)C(=O)N[C@@H](Cc1ccc(O)cc1)C(N)=O)[C@@H](C)O)C(C)C` [Compound 79, N{alpha-4}-(3-methylbutanoyl)-N{epsilon-7}-(6-[(4S)-4-carboxy-4-(17-carboxyheptadecanamido)butanamido]hexanoyl)-[4A,7K,9E,18Q,22V,28Y,30W,31L]-hPYY(4-36)], in series [1], the “Sol6” value is 10.0 mg/mL and the “Sol7” value worked out at 10.0 mg/mL. The EC50 in series [2] is over 5000 nM. In series [3], the Ki amounted to 1.54 nM.

As to `CC(C)CC(=O)N[C@@H](C)C(=O)N1CCC[C@H]1C(=O)N[C@@H](CCC(=O)O)C(=O)N[C@@H](CCCCNC(=O)CCCCCNC(=O)CC[C@H](NC(=O)CCCCCCCCCCCCCCCCC(=O)O)C(=O)O)C(=O)N1CCC[C@H]1C(=O)N[C@@H](CCC(=O)O)C(=O)N[C@@H](CCC(=O)O)C(=O)N[C@@H](CC(=O)O)C(=O)N[C@@H](C)C(=O)N[C@@H](CCC(=O)O)C(=O)N1CCC[C@H]1C(=O)N[C@@H](CCC(=O)O)C(=O)N[C@@H](CCC(=O)O)C(=O)N[C@@H](CC(C)C)C(=O)N[C@@H](CCC(N)=O)C(=O)N[C@@H](CCCNC(=N)N)C(=O)N[C@@H](Cc1ccc(O)cc1)C(=O)N[C@@H](Cc1ccc(O)cc1)C(=O)N[C@H](C(=O)N[C@@H](CO)C(=O)N[C@@H](CC(C)C)C(=O)N[C@@H](CCCNC(=N)N)C(=O)N[C@@H](Cc1c[nH]cn1)C(=O)N[C@@H](Cc1ccc(O)cc1)C(=O)N[C@@H](Cc1ccc(O)cc1)C(=O)N[C@@H](Cc1c[nH]cn1)C(=O)N[C@@H](Cc1c[nH]c2ccccc12)C(=O)N[C@@H](CC(C)C)C(=O)N[C@H](C(=O)N[C@@H](CCCNC(=N)N)C(=O)N[C@@H](CCC(N)=O)C(=O)N[C@@H](CCCNC(=N)N)C(=O)N[C@@H](Cc1ccc(O)cc1)C(N)=O)[C@@H](C)O)[C@@H](C)O` [Compound 91, N{alpha-4}-(3-methylbutanoyl)-N{epsilon-7}-(6-[(4S)-4-carboxy-4-(17-carboxyheptadecanamido)butanamido]hexanoyl)-[4A,7K,9E,13E,18Q,22T,28Y,29H,30W,31L]-hPYY(4-36)] (Isovaleryl-APEK([Ahx-γGlu-C18 diacid])PEEDAEPEELQRYYTSLRHYYHWLTRQRY-NH2), in series [1], the “Sol6” value was 8.9 mg/mL and the “Sol7” value is 9.4 mg/mL. For the same molecule, in series [2], the EC50 is at least 5000 nM. Moreover, in series [3], the Ki turned out to be 4.64 nM.

`CC[C@H](C)[C@H](NC(=O)[C@H](CCC(=O)O)NC(=O)[C@H](CCC(=O)O)NC(=O)[C@@H]1CCCN1C(=O)[C@H](CO)NC(=O)[C@H](C)NC(=O)[C@H](CC(=O)O)NC(=O)[C@H](C)NC(=O)[C@H](CCC(=O)O)NC(=O)[C@@H]1CCCN1C(=O)[C@H](CCCCNC(=O)CCCCCNC(=O)CC[C@H](NC(=O)CCCCCCCCCCCCCCCCC(=O)O)C(=O)O)NC(=O)[C@H](CCC(=O)O)NC(=O)[C@@H]1CCCN1C(=O)[C@H](C)NC(=O)CC(C)C)C(=O)N[C@@H](CCC(N)=O)C(=O)N[C@@H](CCCNC(=N)N)C(=O)N[C@@H](Cc1ccc(O)cc1)C(=O)N[C@@H](Cc1ccc(O)cc1)C(=O)N[C@H](C(=O)N[C@@H](CO)C(=O)N[C@@H](CC(C)C)C(=O)N[C@@H](CCCNC(=N)N)C(=O)N[C@@H](Cc1c[nH]cn1)C(=O)N[C@@H](Cc1ccc(O)cc1)C(=O)N[C@@H](Cc1ccc(O)cc1)C(=O)N[C@@H](CC(N)=O)C(=O)N[C@@H](Cc1c[nH]c2ccccc12)C(=O)N[C@@H](CC(C)C)C(=O)N[C@H](C(=O)N[C@@H](CCCNC(=N)N)C(=O)N[C@@H](CCC(N)=O)C(=O)N[C@@H](CCCNC(=N)N)C(=O)N[C@@H](Cc1ccc(O)cc1)C(N)=O)[C@@H](C)O)C(C)C` [Compound 140, N{alpha-4}-(3-methylbutanoyl)-N{epsilon-7}-(6-[(4S)-4-carboxy-4-(17-carboxyheptadecanamido)butanamido]hexanoyl)-[4A,7K,9E,10A,17I,18Q,22V,28Y,30W,31L]-hPYY(4-36)]: in series [1], the “Sol6” value was found to be 9.9 mg/mL and the “Sol7” value was determined as 9.3 mg/mL. The EC50 in series [2] is over 5000 nM. The Ki in series [3] worked out at 1.41 nM.
